The source of these data is patent US8809627B2, “Plant isoflavone and isoflavanone O-methyltransferase genes” (The Samuel Roberts Noble Foundation, Inc., priority 2006, dated 2014).

“Also recorded” adds a separate entry of the source.

Type in all cases: cell-based, Medicago truncatula
The subject of one assay is IFS genes. The experiment in a line: Microarray analysis of elicitor-treated cell suspension cultures: IFS transcripts. The following applies: MeJA: 24 h after treatment. From the text:
(§1) The Affymetrix DNA chip contained 61,200 probe sets: 32,167 M. truncatula EST/mRNA-based and chloroplast gene-based probe sets (TIGR Gene Index version 8, January, 2005, 36,878 unique sequences); 18,733 M. truncatula IMGAG (International Medicago Genome Annotation Group) and phase 2/3 BAC prediction-based probe sets; 1,896 M. sativa EST/mRNA based probe sets; 8,305 Sinorhizobium meliloti gene prediction-based probe sets. For microarray experiments, total RNA was extracted from cell suspension cultures (Suzuki et al., 2005) using TRI Reagent (Molecular Research Center, Inc., Cincinnati, Ohio) and purified using the RNeasy® MinElute Cleanup Kit (Qiagen, Valencia, Calif.), according to the manufacturer's instructions. For all samples, 10 μg of total RNA was used for labeling reactions. Labeling, hybridization and data processing were performed according to the manufacturer's instruction (Affymetrix, Santa Clara, Calif.). For both YE and MeJA treatments, transcript profiles were examined at early (2 h) and late (24 h) time post-elicitation. For each sample point, two biological replicates were included, and the average signal intensities were used to calculate ratio of treatment to its corresponding control.
MtIOMTs 6-8 are annotated as encoding 2,7,4′-trihydroxyisoflavanone 4′-OMTs. […]

A further assay deals with MtIOMT1. The experiment in a line: Expression in elicitor-treated cell cultures: MtIOMT1 transcripts.
Text: as §1, with “control. […]” for “control.”

The subject of assay [1] is MtIOMT6. The assay is described as follows: RT-PCR analysis of elicitor-treated cell cultures: MtIOMT6. Here is the method: (§2) Infection of M. truncatula with Phoma medicaginis was performed as described (Deavours and Dixon, 2005). RNA was extracted from plant tissues using TRI Reagent (Molecular Research Center, Inc., Cincinnati, Ohio) according to the manufacturer's instructions. For RT-PCR, 2 μg of total RNA was transcribed into cDNA using Ready-To-Go RT-PCR beads (Amersham, Piscataway, N.J.) and oligo-dT primer. Two μl of cDNA was used in each PCR reaction (50 μl total) with Ex-Taq PCR reagents (Takara Bio Inc., Shiga, Japan) and the primers used are listed in Table 1 (SEQ ID NOs:16-29). PCR conditions were 94° C., 5 min; 25-32 cycles of 94° C. for 1 min, 55° C. for 1 min, 72° C. for 1 min; followed by 72° C. for 10 min. PCR products were resolved on a 1% (w/v) TAE-agarose gel and visualized with ethidium bromide.
(§3) Differential induction of MtIOMTs in response to elicitation was also observed in M. truncatula cell cultures treated with yeast elicitor (YE) or methyl jasmonate (MeJA), which induce different global patterns of genetic re-programming (Suzuki et al., 2005). Changes in IOMT transcripts in elicited cells were inferred from microarray data generated utilizing Affymetrix Medicago genome arrays with 61K probe sets (www.affymetrix.com). […]

For another assay, the system named is MtIOMT7. The assay is described as follows: Microarray analysis of elicitor-treated cell suspension cultures: MtIOMT7 transcripts. To be noted: 2 and 24 hours post-elicitation.
Text: as §1, with “control. […]” for “control.”

Assay [2] deals with MtIOMT6. The assay is described as follows: Microarray analysis of elicitor-treated cell suspension cultures: MtIOMT6 transcripts. The following applies: 2 and 24 hours post-elicitation.
Text: as §1, with “control. […]” for “control.”

Another assay deals with MtIOMT4. The experiment in a line: Microarray analysis of elicitor-treated cell suspension cultures: MtIOMT4 transcripts. The following applies: 2 and 24 hours post-elicitation.
Text: as §1, with “control. […]” for “control.”

For the next assay, the system named is MtIOMT2. The experiment in a line: RT-PCR analysis of elicitor-treated cell cultures: MtIOMT2. As to the method: as §2, §3

In the case of `CC/C=C\CC1C(=O)CCC1CC(=O)OC` (stereo not shown) [MeJA, methyl jasmonate], the “Change of IFS gene transcripts, treatment vs control” value in the assay with IFS genes is “down-regulated; also recorded: consistently reduced”. Besides, the “Induction of MtIOMT1 transcripts” value with MtIOMT1 is listed as “induced”. In addition, the “Induction of MtIOMT6 transcripts” value in the assay on MtIOMT6 [1] is recorded as “strong induction”. Besides, the “Induction of MtIOMT7 transcripts, treatment vs control” value with MtIOMT7 is “massively induced; also recorded: very strongly induced”. The “Induction of MtIOMT6 transcripts, treatment vs control” value with MtIOMT6 [2] is “massively induced; also recorded: very strongly induced”. Also, in the assay on MtIOMT4, the “Induction of MtIOMT4 transcripts, treatment vs control” value was “down-regulated”. Also, the “Induction of MtIOMT2 transcripts” value in the assay on MtIOMT2 was “strong induction”.
